According to patent publication US11998610B2, “Conjugates and methods of using the same” (Flagship Pioneering Innovations V, Inc., priority 2018, dated 2024):
Non-standard residues stand in square brackets, D forms with d. Residues, ends and D or L forms follow the SMILES beside them. *: point of attachment. Octanoyl = CCCCCCCC(=O)*

Assays:
E. coli BL21(DE3) = experiment: Cell-based assay with ClbP with LCMS, ClbP negative strain; details: 10 μM compound, 37° C., 20 h
Experimental: (§1) This example is representative of the methods described in Example 97. ClbP was tested for its ability to activate compounds. […] Each of these three strains was struck out onto an appropriate solid media such as LB agar or BHI agar. The bacteria were then grown aerobically overnight at 37° C.
(§2) A single colony was isolated from the plate and inoculated into 10 mL LB. The liquid cultures were grown overnight aerobically at 37° C. with rocking on a nutator.
(§3) The saturated E. coli cultures were transferred into a biosafety cabinet. 5 μL of each culture was inoculated into fresh LB broth (200 μL total, 1:40 (v/v) dilution of the overnight culture), and the tested compound was added to a final concentration of 10 μM. To establish the native stability of the compound in media alone, the compound was also added to uninoculated media at a final concentration of 10 μM. Each compound was tested in duplicate with each strain or the media-alone incubation. The plate was sealed and incubated aerobically on a nutator at 37° C. for 20 h.
(§4) After 20 h, the reactions were stopped by addition of 200 μL acetonitrile. The contents of each well were mixed, and then the plate was centrifuged (4,000 rpm, 10 min). The plate was diluted serially to a final dilution of 1:100 first with Acetonitrile (10× dilution) and then with (4:1) Mobile Phase A-20 mM ammonium formate+water:Mobile Phase B-Isopropanol:Methanol:Water (4:4:2)+20 mM ammonium formate (10× dilution).
(§5) The amount of each remaining parent compound in each incubation was quantified by LC-MS analysis, with multiple-reaction monitoring targeting transitions specific to each parent compound.
(§6) The amount of compound present in the media-alone condition was normalized to 100%. The amount of parent compound present in the reaction with the ClbP-encoding E. coli (E. coli CFT073 ATCC 700928 and/or E. coli Nissle 1917) was compared to the amount present in the media-alone and expressed as a percent. Likewise, the amount of parent compound present in the reaction with the negative control E. coli BL21(DE3) was compared to the amount present in the media-alone and expressed as a percent.
(§7) In an ideal case, the amount of residual starting material in the reaction(s) with ClbP-encoding E. coli was <25% of the amount in the E. coli BL21(DE3) and media-alone conditions. In an acceptable case, the amount of residual starting material in the reaction(s) with ClbP-encoding E. coli was 25-75% of the amount in the E. coli BL21(DE3) and media-alone conditions. In a non-preferred case, the amount of residual starting material in the reaction(s) with ClbP-encoding E. coli was >75% of the amount in the E. coli BL21(DE3) and media-alone conditions.

[1] = test system: E. coli CFT073 ATCC 700928 and/or E. coli Nissle 1917; experiment: Cell-based assay with ClbP with LCMS, ClbP positive strain; details: for % Remaining in ClbP Positve Relative to Media-Only: ClbP-encoding E. coli, 10 μM compound, 37° C., 20 h; for Difference between the ClbP Positive and ClbP Negative release profiles: conclusion from Table 4
Experimental: as §1, §2, §3, §4, §5, §6, §7

[2] = In vitro Colonic Material Stability Assay; assay type: in vitro ADME; details: colonic material slurry, anaerobic, 1 or 10 μM, 24 h
Experimental: Assay 3 In vitro Colonic Material Stability Assay. This assay was used to assess the stability of an acylated active agent in a large intestine. All experiments were performed in an anaerobic chamber containing 90% nitrogen, 5% hydrogen and 5% carbon dioxide. Colonic material was resuspended as a slurry (15% w/v final concentration) in pre-reduced, anaerobically sterilized dilution blanks (Anaerobe Systems AS-908). The colonic material was then inoculated into 96 well plates containing YCFAC media (Anaerobe Systems AS-680) or other suitable media (6.7 μL slurry into 1 mL total media). Compounds or groups of compounds were added to each individual well to reach a final analyte concentration of 1 or 10 μM, and the material was mixed by pipetting. Sample was removed after set timepoints (0, 120, 240, 480, 1440, 2880 minutes after initiation of the assay), quenched with acetonitrile containing internal standard, and analyzed by LC/MS.

Compound | % Remaining in ClbP Negative Relative to Media-Only (E. coli BL21(DE3)) | % Remaining in ClbP Positve Relative to Media-Only [1] | Assay 3 (% Remaining at 24 h) [2] | Difference between the ClbP Positive and ClbP Negative release profiles [1]
COC(=O)[C@H](C)NC(=O)[C@@H](CC(N)=O)NC(=O)c1cn(C2CC2)c2cc(N3CCNCC3)c(F)cc2c1=O [Example 19, Methyl (1-cyclopropyl-6-fluoro-4-oxo-7-(piperazin-1-yl)-1,4-dihydroquinoline-3-carbonyl)-D-asparaginyl-L-alaninate] | − (>75% compound remaining in the 20 μM WT ClbP reaction relative to the no-enzyme control) | + (between 25-75% compound remaining in the 20 μM WT ClbP reaction relative to the no-enzyme control) | A (<25% of the tested compound remaining) | 
CCCCCCCCCCCCCC(=O)N[C@H](CC(N)=O)C(=O)N[C@@H](C)CNC(=O)OC [Example 23, Methyl ((S)-2-((R)-4-amino-4-oxo-2-tetradecanamidobutanamido)propyl)carbamate] | − (>75% compound remaining in the 20 μM WT ClbP reaction relative to the no-enzyme control) | + (between 25-75% compound remaining in the 20 μM WT ClbP reaction relative to the no-enzyme control) |  | 
CCCCCCCCCCCCCC(=O)N[C@H](CC(N)=O)C(=O)N[C@@H](C)CCC(=O)Oc1ccc2nc3c(c(CC)c2c1)Cn1c-3cc2c(c1=O)COC(=O)[C@]2(O)CC [Example 24, (S)-4,11-diethyl-4-hydroxy-3,14-dioxo-3,4,12,14-tetrahydro-1H-pyrano[3′,4′:6,7]indolizino[1,2-b]quinolin-9-yl (S)-4-((R)-4-amino-4-oxo-2-tetradecanamidobutanamido)pentanoate] | − (>75% compound remaining in the 20 μM WT ClbP reaction relative to the no-enzyme control) | + (between 25-75% compound remaining in the 20 μM WT ClbP reaction relative to the no-enzyme control) |  | 
CCCCCCCCCCCCCC(=O)N[C@H](CC(N)=O)C(=O)NCCN(C)C(=O)OC [Example 30, Methyl (R)-(2-(4-amino-4-oxo-2-tetradecanamidobutanamido)ethyl)(methyl)carbamate] | − (>75% compound remaining in the 20 μM WT ClbP reaction relative to the no-enzyme control) | + (between 25-75% compound remaining in the 20 μM WT ClbP reaction relative to the no-enzyme control) |  | 
CCCCCCCCCCCCCC(=O)N[C@H](CC(N)=O)C(=O)NCCN(C)C(=O)Oc1ccc(Br)cc1 [Example 31, 4-bromophenyl (R)-(2-(4-amino-4-oxo-2-tetradecanamidobutanamido)ethyl)(methyl)carbamate] | − (>75% compound remaining in the 20 μM WT ClbP reaction relative to the no-enzyme control) | − (>75% compound remaining in the 20 μM WT ClbP reaction relative to the no-enzyme control) |  | 
CCCCCCCC(=O)N[C@H](CC(N)=O)C(=O)NCCC(C)(C)C(=O)Oc1ccc2nc3c(c(CC)c2c1)Cn1c-3cc2c(c1=O)COC(=O)[C@]2(O)CC [Example 40, (S)-4,11-diethyl-4-hydroxy-3,14-dioxo-3,4,12,14-tetrahydro-1H-pyrano[3′,4′:6,7]indolizino[1,2-b]quinolin-9-yl 4-((R)-4-amino-2-octanamido-4-oxobutanamido)-2,2-dimethylbutanoate] | − (>75% compound remaining in the 20 μM WT ClbP reaction relative to the no-enzyme control) | + (between 25-75% compound remaining in the 20 μM WT ClbP reaction relative to the no-enzyme control) |  | 
CCCCCCCC(=O)N[C@H](CC(N)=O)C(=O)Nc1ccc(COC)cc1 [Example 44, (R)—N1-(4-(methoxymethyl)phenyl)-2-octanamidosuccinamide] | − (>75% compound remaining in the 20 μM WT ClbP reaction relative to the no-enzyme control) | − (>75% compound remaining in the 20 μM WT ClbP reaction relative to the no-enzyme control) |  | 
CCCCCCCC(=O)N[C@H](CC(N)=O)C(=O)NCCNC(=O)OC [Example 46, Methyl (R)-(2-(4-amino-2-octanamido-4-oxobutanamido)ethyl)carbamate] | − (>75% compound remaining in the 20 μM WT ClbP reaction relative to the no-enzyme control) | ++ (<25% compound remaining in the 20 μM WT ClbP reaction relative to the control) |  | particularly favorable difference
CCCCCCCC(=O)N[C@H](CC(N)=O)C(=O)N[C@@H](C)CNC(=O)Oc1ccc(Br)cc1 [Example 48, 4-bromophenyl ((S)-2-((R)-4-amino-2-octanamido-4-oxobutanamido)propyl)carbamate] | + (between 25-75% compound remaining in the 20 μM WT ClbP reaction relative to the no-enzyme control) | + (between 25-75% compound remaining in the 20 μM WT ClbP reaction relative to the no-enzyme control) |  | 
CCCCCCNC(=O)N[C@H](CC(N)=O)C(=O)N[C@@H](C)C(=O)OC [Example 53, Methyl (hexylcarbamoyl)-D-asparaginyl-L-alaninate] | − (>75% compound remaining in the 20 μM WT ClbP reaction relative to the no-enzyme control) | ++ (<25% compound remaining in the 20 μM WT ClbP reaction relative to the control) |  | particularly favorable difference
CCCCCCCC(=O)N[C@H](Cc1c[nH]cn1)C(=O)N[C@@H](C)C(=O)OC [Example 54, Methyl octanoyl-D-histidyl-L-alaninate] (Octanoyl-[dH]-Ala-OMe) | + (between 25-75% compound remaining in the 20 μM WT ClbP reaction relative to the no-enzyme control) | + (between 25-75% compound remaining in the 20 μM WT ClbP reaction relative to the no-enzyme control) |  | 
CCCC(=O)N[C@H](CC(N)=O)C(=O)N[C@@H](C)CCC(=O)Oc1ccc2nc3c(c(CC)c2c1)Cn1c-3cc2c(c1=O)COC(=O)[C@]2(O)CC [Example 58, (S)-4,11-diethyl-4-hydroxy-3,14-dioxo-3,4,12,14-tetrahydro-1H-pyrano[3′,4′:6,7]indolizino[1,2-b]quinolin-9-yl (S)-4-((R)-4-amino-2-butyramido-4-oxobutanamido)pentanoate] | + (between 25-75% compound remaining in the 20 μM WT ClbP reaction relative to the no-enzyme control) | ++ (<25% compound remaining in the 20 μM WT ClbP reaction relative to the control) |  | 
CCCCCCCC(=O)N[C@H](CC(N)=O)C(=O)NCCC(C)(C)C(=O)Oc1ccc2c(C)cc(=O)oc2c1 [Example 72A, 4-methyl-2-oxo-2H-chromen-7-yl (R)-4-(4-amino-2-octanamido-4-oxobutanamido)-2,2-dimethylbutanoate] | + (between 25-75% compound remaining in the 20 μM WT ClbP reaction relative to the no-enzyme control) | + (between 25-75% compound remaining in the 20 μM WT ClbP reaction relative to the no-enzyme control) |  | 
